Read-outs that look alike come from different tables or passages of the source.
How the values were obtained:
rat PO PBL study = assay type: in vivo; conditions: 3 mg/kg PO
Description: (§1) Thus, 19d was a stable chemical entity in vivo. […] Overall, the rat PK and CNS penetration was supportive of in vivo work and progression down the development flow-chart.

rat IP PBL study = assay type: in vivo; conditions: 3 mg/kg IP, at Tmax
Description: as §1

rats = experiment: MK-801 induced disruption of novel object recognition; assay type: in vivo; conditions: rat, p.o.
Procedure: Based on our previous work with the mGlu1 PAM 4,[6]−[9],[14]−[19] we first evaluated the ability of 19d to reverse MK-801 disruptions of novel object recognition (NOR) in rats (Figure 6).
Figure 6 Rat MK-801 induced disruption of novel object recognition and reversal by VU6024578 (19d). MK-801 (0.5 mg/kg IP) induced a robust disruption of NOR, which was dose-dependently reversed by oral administration (10% tween 80) of 19d.
The animals are habituated to the novel object arenas for 1 day prior to testing. This is accomplished by placing the animal in the arena with no objects for 10 min and then placed back into the home cage. The arena is then cleaned with 70% ethanol in between animals. The day of the test the animals are habituated to the dosing room for 2 h. The animals were administered VU6024578 (1–10 mg/kg p.o.) or vehicle (10% Tween 80) and were placed back into their homecage for 60 min. The animals were then injected with MK-801 (0.075 mg/kg 1 mL/kg s.c.) and placed back in the homecage for 30 min. […] The activity of the animals are recorded and the time spent exploring each of the objects is scored by a blinded observer. Recognition index is determined by subtracting […] divided by total time spent exploring.

satellite PK for rat AHL = assay type: in vivo; conditions: 2.5-h end of study; for concentration at 2.5 h: brain, oral, read-out: free brain concentration
Procedure: Here, administration of 0.75 mg/kg IP of amphetamine induced a robust hyperlocomotive state in rats (>1200 beam breaks), which was dose-dependently reversed by oral administration of 19d. […] Considering the longer time point for exposure and the results, mGlu1 has sufficient target coverage and PK/PD is established for this paradigm.[24]

C57Bl/6 mice = experiment: amphetamine-induced hyperlocomotion (mouse); assay type: in vivo
Procedure: In parallel with the rat AHL study, we carried out a mouse AHL study to determine if the PK/PD relationship would remain intact across rodent species. Here, amphetamine was dosed to C57Bl/6 mice at 3 mg/kg s.c. to achieve ∼800 beam breaks, followed by the oral administration of 19d at 3, 10, and 30 mg/kg (Figure 8). […] Thus, mGlu1 has sufficient target coverage and PK/PD^24 is established for this paradigm in mouse and agree well with the PK/PD relationship established in rat for both NOR and AHL wherein free brain concentrations at or above the in vitro EC50 facilitates a significant pharmacodynamic response.
Figure 8 Mouse amphetamine-induced hyperlocomotion and reversal by VU6024578 (19d). Amphetamine (3.0 mg/kg s.c.) induced robust hyperlocomotion, which was dose-dependently reversed by oral administration (0.5% Natrasol/0.015% tween 80 in H2O) of 19d. TEXT PRINTED IN THE PICTURE: VU6024578-09: Mean % reversal: -7.7 ± 32.6 (3 mg/kg i.p. + Amphetamine 3 mg/kg s.c.); Mean % reversal: 84.2 ± 10.2 (10 mg/kg i.p. + Amphetamine 3 mg/kg s.c.); Mean % reversal: 90.0 ± 12.7 (30 mg/kg i.p. + Amphetamine 3 mg/kg s.c.)
Adult male C57/bl6 mice are placed in the activity chambers (Med Associates) to habituate. 90 min later the mice were administered VU6024578 (3–30 mg/kg i.p. Ten ml/kg) or vehicle (0.5% natrasol/0.015% Tween 80) and placed back in the activity chambers. Thirty minutes later the animals were administered Amphetamine (3 mg/kg) and placed back in the activity chambers for 1 h. The data for the studies were analyzed by a between-group 2 way analysis of variance for compound dose and time. Total ambulation from 125 to 180 min was analyzed by one-way ANOVA. Each dose group was compared with the vehicle control group. The calculations were performed and graphed using GraphPad Prism (version 4.03, GraphPad, La Jolla, CA).

[1] = system: Adrenergic alpha 1 (non-selective); experiment: Eurofins radioligand binding panel; parameters: species or system rat; conditions: antagonist radioligand
Description: (§2) Table S1. Eurofins Lead Profiling Screen Data
(§3) This is a radioligand binding panel of 80 targets including GPCRs, ion channels, transporters and nuclear hormones. Biochemical assay results are presented as the percent inhibition of specific […]
(§4) Results showing an inhibition or stimulation higher than 50% are considered to represent significant effect and are highlighted […]
(§5) Target / Protein Species % Inhibition at 10 […]

[2] = system: Adrenergic alpha 2 (non-selective); experiment: Eurofins radioligand binding panel; parameters: species or system rat; conditions: antagonist radioligand
Description: as §2, §3, §4, §5

BB (non-selective) = experiment: Eurofins radioligand binding panel; parameters: species or system rat; conditions: agonist radioligand
Description: as §2, §3, §4, §5

[3] = system: Ca2+ channel (L, verapamil site) (phenylalkylamine); experiment: Eurofins radioligand binding panel; parameters: species or system rat; conditions: antagonist radioligand
Description: as §2, §3
(§6) Results showing an inhibition or stimulation higher than 50% are considered to represent significant effect and are highlighted

GABA (non-selective) = experiment: Eurofins radioligand binding panel; parameters: species or system rat; conditions: agonist radioligand
Description: as §2, §3, §6

KV channel = experiment: Eurofins radioligand binding panel; parameters: species or system rat; conditions: antagonist radioligand
Description: as §2, §3, §6

P2Y = experiment: Eurofins radioligand binding panel; parameters: species or system rat; conditions: agonist radioligand
Description: as §2, §3, §6

PCP = experiment: Eurofins radioligand binding panel; parameters: species or system rat; conditions: antagonist radioligand
Description: as §2, §3, §6

SKCa channel = experiment: Eurofins radioligand binding panel; parameters: species or system rat; conditions: antagonist radioligand
Description: as §2, §3, §6

5-HT2B = 5-HT2B (Homo sapiens, UniProt P41595); experiment: Eurofins radioligand binding panel; parameters: Eurofins; conditions: agonist radioligand
5-HT2B, sequence (P41595 whole entry): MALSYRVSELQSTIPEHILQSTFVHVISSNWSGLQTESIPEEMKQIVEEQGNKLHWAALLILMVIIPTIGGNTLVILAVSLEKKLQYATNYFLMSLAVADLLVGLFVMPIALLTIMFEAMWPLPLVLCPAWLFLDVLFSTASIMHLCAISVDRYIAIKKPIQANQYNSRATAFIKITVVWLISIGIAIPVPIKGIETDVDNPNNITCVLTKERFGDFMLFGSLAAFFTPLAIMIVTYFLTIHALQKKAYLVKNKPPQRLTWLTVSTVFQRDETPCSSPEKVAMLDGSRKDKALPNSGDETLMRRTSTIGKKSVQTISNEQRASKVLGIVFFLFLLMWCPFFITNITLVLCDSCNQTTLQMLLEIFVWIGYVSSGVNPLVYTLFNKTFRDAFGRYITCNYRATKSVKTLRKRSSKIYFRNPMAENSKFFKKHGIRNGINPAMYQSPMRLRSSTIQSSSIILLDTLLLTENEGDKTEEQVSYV
Description: as §2, §3, §6

SMILES: Cn1nc(-c2ccnn2C)cc1CNC(=O)c1cc(-c2ccco2)ccc1Cl [Compound 19d, 2-Chloro-N-((1,2′-dimethyl-1H,2’H-[3,3′-bipyrazol]-5-yl)methyl)-5-(furan-2-yl)benzamide]
- unbound brain concentration Br[unbound] (rat PO PBL study; at Tmax): 100 nM
- Kp (rat PO PBL study; brain, 15 min to 7 h): ~0.5
- Br[unbound] (rat IP PBL study): 68 nM
- minimum effective dose (MED), MK-801 disrupted NOR (rats): 10 mg/kg
- free brain concentration over in vitro EC50 (satellite PK for rat AHL; 3 mg/kg): ~0.6 fold
- free brain concentration over in vitro EC50 (satellite PK for rat AHL; 10 mg/kg): ~1.2 fold
- concentration at 2.5 h (satellite PK for rat AHL; 3 mg/kg): 32 nM
- concentration at 2.5 h (satellite PK for rat AHL; 10 mg/kg): 67 nM
- reversal of AHL, in words (C57Bl/6 mice; 3 mg/kg): no reversal
- Mean % reversal of AHL (C57Bl/6 mice; 3 mg/kg i.p.): -7.7 ± 32.6%
- reversal of AHL, in words (C57Bl/6 mice; 10 mg/kg): Full reversal
- Mean % reversal of AHL (C57Bl/6 mice; 10 mg/kg i.p.): 84.2 ± 10.2%
- reversal of AHL, in words (C57Bl/6 mice; 30 mg/kg): Full reversal
- Mean % reversal of AHL (C57Bl/6 mice; 30 mg/kg i.p.): 90.0 ± 12.7%
- % Inhibition at 10 µM [1]: 19%
- % Inhibition at 10 µM [2]: 1%
- % Inhibition at 10 µM (BB (non-selective)): -20%
- % Inhibition at 10 µM [3]: -16%
- % Inhibition at 10 µM (GABA (non-selective)): -3%
- % Inhibition at 10 µM (KV channel): 8%
- % Inhibition at 10 µM (P2Y): 23%
- % Inhibition at 10 µM (PCP): 2%
- % Inhibition at 10 µM (SKCa channel): 2%
- inhibition at 10 µM (5-HT2B): 67%
